Measured values published in paper PMC11868366 (Communications Biology, 2025).

Target: S6MTHFR (Sphingobium sp. SYK-6, UniProt G2IQS8)
Test: X-ray crystal structure of CH3-THF complex, […] Å
Assay type: binding
Conditions: FAD bound as purified; pH 4.5

Chain of S6MTHFR (G2IQS8 2-288): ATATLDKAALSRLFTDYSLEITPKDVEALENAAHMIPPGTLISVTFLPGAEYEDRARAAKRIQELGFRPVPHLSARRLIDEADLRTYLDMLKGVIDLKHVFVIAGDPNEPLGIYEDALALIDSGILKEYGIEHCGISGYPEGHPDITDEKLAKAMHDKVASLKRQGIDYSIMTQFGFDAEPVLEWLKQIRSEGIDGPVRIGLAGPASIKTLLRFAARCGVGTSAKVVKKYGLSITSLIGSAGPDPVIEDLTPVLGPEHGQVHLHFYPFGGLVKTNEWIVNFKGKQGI

## Cc1cc2nc3c(=O)[nH]c(=O)nc-3n(C[C@H](O)[C@H](O)[C@H](O)COP(=O)(O)OP(=O)(O)OC[C@H]3O[C@@H](n4cnc5c(N)ncnc54)[C@H](O)[C@@H]3O)c2cc1C [FAD]
  X-ray crystal structure of CH3-THF complex, 1.85 Å: FAD and the experimentally observed part of the CH3-THF molecule are shown by stick models
